The source of these data is ChEMBL document CHEMBL1152560, “Substituted 2-arylbenzothiazoles as kinase inhibitors: hit-to-lead optimization” (Bioorg Med Chem, 2009).

Experiment [1] has as its target Mitogen-activated protein kinase 9 (Homo sapiens) (UniProt P45984). Kind of experiment: Residual activity of JNK2 at 1 uM by microplate scintillation counting.
In experiment [2] the target is Insulin-like growth factor 1 receptor (Homo sapiens) (UniProt P08069). Kind of experiment: Residual activity of IGF1R at 10 uM by microplate scintillation counting.
For experiment [3], the target named is Serine/threonine-protein kinase MRCK beta (Homo sapiens) (UniProt Q9Y5S2). Kind of experiment: Residual activity of CDC42BPB at 10 uM by microplate scintillation counting.
Experiment [4] has as its target Tyrosine-protein kinase ABL2 (Homo sapiens) (UniProt P42684). Kind of experiment: Residual activity of ABL2 at 10 uM by microplate scintillation counting.
For experiment [5], the target named is ALK tyrosine kinase receptor (Homo sapiens) (UniProt Q9UM73). In words: Residual activity of ALK at 1 uM by microplate scintillation counting.
Experiment [6] addresses Serine/threonine-protein kinase WNK2 (Homo sapiens) (UniProt Q9Y3S1). In words: Residual activity of WNK2 at 1 uM by microplate scintillation counting.
The target in experiment [7] is Receptor tyrosine-protein kinase erbB-4 (Homo sapiens) (UniProt Q15303). Kind of experiment: Residual activity of ERBB4 at 10 uM by microplate scintillation counting.
The target in experiment [8] is T1, Tyrosine-protein kinase ZAP-70 (Homo sapiens) (UniProt P43403).
T1 sequence (whole entry): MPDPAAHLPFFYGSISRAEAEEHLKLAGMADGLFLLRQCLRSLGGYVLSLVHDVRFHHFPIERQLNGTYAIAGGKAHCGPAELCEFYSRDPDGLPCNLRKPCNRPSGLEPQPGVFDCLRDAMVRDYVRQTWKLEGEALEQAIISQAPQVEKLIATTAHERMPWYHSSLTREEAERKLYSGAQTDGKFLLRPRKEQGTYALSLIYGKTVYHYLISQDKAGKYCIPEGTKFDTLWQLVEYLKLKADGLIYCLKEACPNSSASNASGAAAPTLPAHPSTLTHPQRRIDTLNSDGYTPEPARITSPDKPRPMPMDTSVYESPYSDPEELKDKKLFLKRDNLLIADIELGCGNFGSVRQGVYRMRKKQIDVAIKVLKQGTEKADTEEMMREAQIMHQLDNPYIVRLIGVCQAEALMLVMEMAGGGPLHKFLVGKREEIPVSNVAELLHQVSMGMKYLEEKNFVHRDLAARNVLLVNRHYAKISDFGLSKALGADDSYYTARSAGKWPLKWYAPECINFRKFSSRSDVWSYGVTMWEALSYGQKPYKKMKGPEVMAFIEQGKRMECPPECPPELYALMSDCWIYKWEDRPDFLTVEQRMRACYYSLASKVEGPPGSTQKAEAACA
Kind of experiment: Residual activity of ZAP70 at 10 uM by microplate scintillation counting.

Experiment [9] concerns the target Fibroblast growth factor receptor 1 (Homo sapiens) (UniProt P11362). In words: Residual activity of wild type FGF-R1 at 1 uM by microplate scintillation counting.
The target of experiment [10] is T2, Vascular endothelial growth factor receptor 2 (Homo sapiens, UniProt P35968). Kind of experiment: Residual activity of VEGFR2 at 10 uM by microplate scintillation counting.
T2 sequence (P35968 whole entry): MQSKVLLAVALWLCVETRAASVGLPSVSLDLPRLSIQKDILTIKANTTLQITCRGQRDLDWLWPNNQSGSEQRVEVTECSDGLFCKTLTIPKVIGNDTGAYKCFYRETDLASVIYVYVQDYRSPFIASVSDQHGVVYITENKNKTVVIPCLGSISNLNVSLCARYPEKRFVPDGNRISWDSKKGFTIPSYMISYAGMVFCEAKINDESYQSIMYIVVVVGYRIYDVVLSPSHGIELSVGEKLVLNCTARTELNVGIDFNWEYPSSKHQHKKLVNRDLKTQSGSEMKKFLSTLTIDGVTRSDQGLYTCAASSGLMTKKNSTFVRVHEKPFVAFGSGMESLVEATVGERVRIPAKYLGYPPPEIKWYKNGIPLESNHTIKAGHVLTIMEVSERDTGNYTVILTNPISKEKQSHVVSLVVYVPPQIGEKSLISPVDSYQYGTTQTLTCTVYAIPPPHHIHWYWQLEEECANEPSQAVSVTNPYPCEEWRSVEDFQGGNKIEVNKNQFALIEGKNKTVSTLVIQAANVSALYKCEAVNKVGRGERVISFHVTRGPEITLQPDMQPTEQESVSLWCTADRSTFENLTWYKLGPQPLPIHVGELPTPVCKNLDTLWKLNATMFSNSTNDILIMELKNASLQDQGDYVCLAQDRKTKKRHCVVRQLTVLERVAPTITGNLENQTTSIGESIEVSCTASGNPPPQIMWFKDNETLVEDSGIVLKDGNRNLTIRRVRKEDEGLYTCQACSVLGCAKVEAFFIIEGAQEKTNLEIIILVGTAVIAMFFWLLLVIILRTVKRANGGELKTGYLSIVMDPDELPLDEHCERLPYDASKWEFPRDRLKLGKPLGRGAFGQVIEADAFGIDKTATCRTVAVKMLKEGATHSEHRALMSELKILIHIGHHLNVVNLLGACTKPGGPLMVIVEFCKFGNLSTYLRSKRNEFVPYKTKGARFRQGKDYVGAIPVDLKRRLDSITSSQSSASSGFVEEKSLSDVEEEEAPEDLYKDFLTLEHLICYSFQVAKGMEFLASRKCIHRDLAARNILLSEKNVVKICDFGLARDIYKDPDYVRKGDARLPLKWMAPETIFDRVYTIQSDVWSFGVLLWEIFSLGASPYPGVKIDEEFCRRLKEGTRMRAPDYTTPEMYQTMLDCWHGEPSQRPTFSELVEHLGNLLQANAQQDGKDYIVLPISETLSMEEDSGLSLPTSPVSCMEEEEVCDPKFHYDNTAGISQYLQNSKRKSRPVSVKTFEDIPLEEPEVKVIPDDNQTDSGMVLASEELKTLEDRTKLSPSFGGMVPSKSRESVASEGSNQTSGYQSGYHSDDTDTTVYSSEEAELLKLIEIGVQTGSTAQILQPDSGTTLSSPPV
Experiment [11] addresses Proto-oncogene tyrosine-protein kinase receptor Ret (Homo sapiens) (UniProt P07949). Kind of experiment: Residual activity of RET at 0.1 uM by microplate scintillation counting.
Experiment [12] deals with T3, Tyrosine-protein kinase receptor TYRO3 (Homo sapiens) (UniProt Q06418).
T3 sequence (whole entry): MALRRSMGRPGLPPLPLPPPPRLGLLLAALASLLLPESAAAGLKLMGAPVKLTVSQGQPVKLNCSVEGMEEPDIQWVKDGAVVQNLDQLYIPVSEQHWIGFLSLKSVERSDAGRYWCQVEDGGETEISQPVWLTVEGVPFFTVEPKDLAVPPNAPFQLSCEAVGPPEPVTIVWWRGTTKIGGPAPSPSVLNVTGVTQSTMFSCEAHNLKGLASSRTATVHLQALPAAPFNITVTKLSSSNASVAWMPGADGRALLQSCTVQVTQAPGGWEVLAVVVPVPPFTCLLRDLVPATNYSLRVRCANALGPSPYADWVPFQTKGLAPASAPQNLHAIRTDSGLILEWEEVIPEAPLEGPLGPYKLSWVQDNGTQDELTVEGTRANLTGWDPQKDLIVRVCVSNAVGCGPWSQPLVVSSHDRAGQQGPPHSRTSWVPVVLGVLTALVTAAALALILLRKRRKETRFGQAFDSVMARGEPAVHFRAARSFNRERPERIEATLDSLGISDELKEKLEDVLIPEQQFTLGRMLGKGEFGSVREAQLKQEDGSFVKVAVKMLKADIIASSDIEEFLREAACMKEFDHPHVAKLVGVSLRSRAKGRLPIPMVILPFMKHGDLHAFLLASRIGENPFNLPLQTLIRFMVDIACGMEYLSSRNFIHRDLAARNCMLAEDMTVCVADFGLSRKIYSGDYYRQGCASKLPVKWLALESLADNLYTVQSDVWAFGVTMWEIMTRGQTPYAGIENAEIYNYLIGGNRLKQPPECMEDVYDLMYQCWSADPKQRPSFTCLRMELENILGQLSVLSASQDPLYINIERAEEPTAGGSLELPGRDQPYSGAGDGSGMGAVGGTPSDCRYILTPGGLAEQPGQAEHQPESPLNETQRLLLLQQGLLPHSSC
Kind of experiment: Residual activity of TYRO3 at 0.1 uM by microplate scintillation counting.

For experiment [13], the target named is Serine/threonine-protein kinase B-raf (Homo sapiens) (UniProt P15056). Kind of experiment: Residual activity of Wild type B-RAF at 1 uM by microplate scintillation counting.
Experiment [14] has as its target Calcium/calmodulin-dependent protein kinase type 1D (Homo sapiens) (UniProt Q8IU85). Kind of experiment: Residual activity of CAMK1D at 0.1 uM by microplate scintillation counting.
In experiment [15] the target is Mitogen-activated protein kinase kinase kinase 8 (Homo sapiens) (UniProt P41279). Kind of experiment: Residual activity of COT at 0.1 uM by microplate scintillation counting.
Chain of Mitogen-activated protein kinase kinase kinase 8 (Homo sapiens) (P41279 whole entry): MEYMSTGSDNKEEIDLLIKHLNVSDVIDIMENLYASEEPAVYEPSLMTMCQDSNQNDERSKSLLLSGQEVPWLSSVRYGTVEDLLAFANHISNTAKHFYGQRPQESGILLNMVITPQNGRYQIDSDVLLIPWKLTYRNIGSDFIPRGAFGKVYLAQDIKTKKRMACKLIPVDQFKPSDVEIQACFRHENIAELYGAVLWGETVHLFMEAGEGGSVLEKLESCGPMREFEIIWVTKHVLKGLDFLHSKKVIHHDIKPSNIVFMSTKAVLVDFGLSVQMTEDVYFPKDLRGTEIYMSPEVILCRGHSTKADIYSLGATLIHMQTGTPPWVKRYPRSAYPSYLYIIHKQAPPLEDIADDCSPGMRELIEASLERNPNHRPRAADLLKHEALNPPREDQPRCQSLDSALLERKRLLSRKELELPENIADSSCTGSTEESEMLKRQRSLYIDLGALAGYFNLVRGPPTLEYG
For experiment [16], the target named is T4, Aurora kinase C (Homo sapiens) (UniProt Q9UQB9).
T4 sequence (whole entry): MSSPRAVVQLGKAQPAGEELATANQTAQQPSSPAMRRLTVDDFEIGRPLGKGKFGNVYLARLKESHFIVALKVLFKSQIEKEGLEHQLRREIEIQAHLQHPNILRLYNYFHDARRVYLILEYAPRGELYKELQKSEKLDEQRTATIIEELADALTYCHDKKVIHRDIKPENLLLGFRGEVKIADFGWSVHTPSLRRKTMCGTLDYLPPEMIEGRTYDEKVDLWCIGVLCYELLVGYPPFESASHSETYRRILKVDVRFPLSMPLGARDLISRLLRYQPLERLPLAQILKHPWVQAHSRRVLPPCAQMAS
Kind of experiment: Residual activity of Aurora-C at 10 uM by microplate scintillation counting.

For experiment [17], the target named is Protein-tyrosine kinase 6 (Homo sapiens) (UniProt Q13882). Kind of experiment: Residual activity of BRK at 1 uM by microplate scintillation counting.
Chain of Protein-tyrosine kinase 6 (Homo sapiens) (Q13882 whole entry, looked up): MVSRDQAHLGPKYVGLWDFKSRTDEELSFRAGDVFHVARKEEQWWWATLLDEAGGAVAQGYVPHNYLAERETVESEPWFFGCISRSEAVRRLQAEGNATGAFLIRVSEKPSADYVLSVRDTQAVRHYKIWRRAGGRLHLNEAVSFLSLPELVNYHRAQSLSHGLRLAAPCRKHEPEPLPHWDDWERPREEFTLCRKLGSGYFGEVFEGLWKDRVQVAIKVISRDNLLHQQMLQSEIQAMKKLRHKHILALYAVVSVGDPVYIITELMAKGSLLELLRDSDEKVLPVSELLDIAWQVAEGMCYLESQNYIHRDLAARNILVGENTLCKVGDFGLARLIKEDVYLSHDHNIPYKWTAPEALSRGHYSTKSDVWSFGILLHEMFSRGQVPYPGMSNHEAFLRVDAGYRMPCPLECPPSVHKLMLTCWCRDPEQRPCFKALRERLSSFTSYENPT
In experiment [18] the target is Serine/threonine-protein kinase N1 (Homo sapiens) (UniProt Q16512). In words: Residual activity of PRK1 at 1 uM by microplate scintillation counting.
Experiment [19] deals with T2, Vascular endothelial growth factor receptor 2. In words: Inhibition of VEGFR2 by microplate scintillation counting.

Chain of Serine/threonine-protein kinase WNK2 (Homo sapiens) (Q9Y3S1 whole entry): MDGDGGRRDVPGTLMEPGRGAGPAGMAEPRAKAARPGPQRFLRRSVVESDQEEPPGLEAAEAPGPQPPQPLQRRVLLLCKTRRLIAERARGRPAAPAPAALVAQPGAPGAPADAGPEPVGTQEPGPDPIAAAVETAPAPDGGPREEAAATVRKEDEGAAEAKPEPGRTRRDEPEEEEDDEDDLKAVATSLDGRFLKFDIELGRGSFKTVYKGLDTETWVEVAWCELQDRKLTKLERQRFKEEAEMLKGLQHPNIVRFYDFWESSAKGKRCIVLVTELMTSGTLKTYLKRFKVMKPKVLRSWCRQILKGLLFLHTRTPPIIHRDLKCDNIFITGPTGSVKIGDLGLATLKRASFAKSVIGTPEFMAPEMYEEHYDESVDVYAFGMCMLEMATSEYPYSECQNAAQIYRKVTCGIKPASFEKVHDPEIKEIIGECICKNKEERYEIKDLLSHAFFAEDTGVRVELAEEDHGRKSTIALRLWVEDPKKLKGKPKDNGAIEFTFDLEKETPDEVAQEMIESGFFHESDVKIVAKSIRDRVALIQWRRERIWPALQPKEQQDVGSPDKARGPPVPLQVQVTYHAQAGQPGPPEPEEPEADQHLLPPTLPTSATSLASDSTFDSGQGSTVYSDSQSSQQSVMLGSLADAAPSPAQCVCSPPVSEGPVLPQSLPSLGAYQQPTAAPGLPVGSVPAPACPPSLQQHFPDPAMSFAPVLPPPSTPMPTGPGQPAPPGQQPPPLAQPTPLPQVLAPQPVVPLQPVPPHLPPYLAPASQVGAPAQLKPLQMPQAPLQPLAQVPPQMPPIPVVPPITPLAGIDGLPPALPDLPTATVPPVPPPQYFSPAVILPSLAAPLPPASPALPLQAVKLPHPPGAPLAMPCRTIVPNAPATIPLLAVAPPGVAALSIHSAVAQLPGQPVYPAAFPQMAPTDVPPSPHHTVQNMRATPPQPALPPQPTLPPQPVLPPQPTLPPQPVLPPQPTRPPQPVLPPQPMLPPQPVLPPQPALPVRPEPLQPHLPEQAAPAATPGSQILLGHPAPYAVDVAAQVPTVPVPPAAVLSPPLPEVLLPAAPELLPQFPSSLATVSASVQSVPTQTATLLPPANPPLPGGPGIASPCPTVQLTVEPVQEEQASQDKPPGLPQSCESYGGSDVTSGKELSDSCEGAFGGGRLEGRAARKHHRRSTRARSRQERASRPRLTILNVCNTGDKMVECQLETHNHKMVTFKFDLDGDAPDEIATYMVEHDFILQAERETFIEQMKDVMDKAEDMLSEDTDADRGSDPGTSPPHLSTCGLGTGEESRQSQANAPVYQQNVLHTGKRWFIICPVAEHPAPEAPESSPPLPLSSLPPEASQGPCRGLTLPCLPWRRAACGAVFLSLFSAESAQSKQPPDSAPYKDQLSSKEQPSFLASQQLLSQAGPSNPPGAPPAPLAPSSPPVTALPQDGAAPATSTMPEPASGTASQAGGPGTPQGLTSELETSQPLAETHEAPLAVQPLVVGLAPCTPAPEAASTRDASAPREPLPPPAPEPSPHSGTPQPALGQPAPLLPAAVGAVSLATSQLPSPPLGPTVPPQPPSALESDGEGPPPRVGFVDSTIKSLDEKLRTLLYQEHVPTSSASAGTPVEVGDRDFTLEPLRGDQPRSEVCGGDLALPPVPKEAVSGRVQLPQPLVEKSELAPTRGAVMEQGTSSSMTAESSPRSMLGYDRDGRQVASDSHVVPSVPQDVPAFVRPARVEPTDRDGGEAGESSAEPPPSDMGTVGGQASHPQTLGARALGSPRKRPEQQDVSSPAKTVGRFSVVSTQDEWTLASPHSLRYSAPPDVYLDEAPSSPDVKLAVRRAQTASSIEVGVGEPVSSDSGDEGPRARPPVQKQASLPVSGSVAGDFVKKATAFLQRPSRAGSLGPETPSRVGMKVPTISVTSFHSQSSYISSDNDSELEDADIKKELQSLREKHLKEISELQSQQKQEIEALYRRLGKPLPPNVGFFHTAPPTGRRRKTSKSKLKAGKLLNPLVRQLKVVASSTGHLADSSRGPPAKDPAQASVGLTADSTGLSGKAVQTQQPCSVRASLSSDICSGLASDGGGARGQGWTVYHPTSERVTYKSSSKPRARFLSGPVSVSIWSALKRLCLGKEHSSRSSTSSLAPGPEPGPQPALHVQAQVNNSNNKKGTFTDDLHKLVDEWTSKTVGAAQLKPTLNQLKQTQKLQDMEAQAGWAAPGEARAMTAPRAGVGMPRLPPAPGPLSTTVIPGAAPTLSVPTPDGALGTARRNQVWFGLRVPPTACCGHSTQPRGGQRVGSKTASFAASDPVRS
Chain of Calcium/calmodulin-dependent protein kinase type 1D (Homo sapiens) (Q8IU85 whole entry, looked up): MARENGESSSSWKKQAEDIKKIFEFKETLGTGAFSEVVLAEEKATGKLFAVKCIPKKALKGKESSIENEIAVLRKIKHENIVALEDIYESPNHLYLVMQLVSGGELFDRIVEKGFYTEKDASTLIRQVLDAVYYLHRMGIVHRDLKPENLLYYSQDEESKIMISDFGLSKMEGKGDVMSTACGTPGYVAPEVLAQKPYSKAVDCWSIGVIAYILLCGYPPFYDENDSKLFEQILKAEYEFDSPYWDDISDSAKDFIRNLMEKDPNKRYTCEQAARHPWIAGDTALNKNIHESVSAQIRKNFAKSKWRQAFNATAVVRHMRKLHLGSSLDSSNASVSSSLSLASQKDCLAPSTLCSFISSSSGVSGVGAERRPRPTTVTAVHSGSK

Turning to `COc1cc2c(Oc3ccc(-c4nc5ccccc5s4)cc3)ncnc2cc1OCCCN1CCN(C)CC1`, the residual activity in experiment [1] is 121%; in [2] it was 100%; in [3], 110%; in [4] it was 170%; in [5], 171%; in [6] it was 25%. For the same compound, the residual activity in experiment [7] stood at 118%; in experiment [8] it was 341%; in experiment [9], 123%; in [10] it was 6%; in experiment [11], 92%; in experiment [12], 120%. In addition, the residual activity stood at 79% in experiment [13]; 88% in experiment [14]; 101% in experiment [15]; 0% in [16]; 7% in experiment [17]; 98% in [18]. This compound also returned an IC50 in experiment [19] of 147 nM.
For the compound `COc1cc2c(Oc3ccc(-c4nc5ccccc5s4)cc3)ncnc2cc1OCCCN1CCCC1`, the residual activity is 90% in experiment [1]; 98% in experiment [2]; 82% in experiment [3]; 147% in experiment [4]; 169% in [5]; 34% in [6]. The residual activity in experiment [7] was found to be 116%; in experiment [8] it was 166%; in experiment [9] it was 126%; in [10], 5%; in [11], 97%; in experiment [12], 106%. Further, the residual activity in experiment [13] was determined as 77%; in [14], 101%; in experiment [15] it was 73%; in [16], 1%; in experiment [17] it was 8%; in experiment [18] it was 97%. Further, in [19], the IC50 is 350 nM.
As to `COc1cc2c(Oc3ccc(-c4nc5ccccc5s4)cc3F)ncnc2cc1OCCCN1CCN(C)CC1`, the residual activity in experiment [1] stood at 119%; in experiment [2] it was 46%; in experiment [3], 102%; in experiment [4], 93%; in experiment [5], 178%; in experiment [6], 53%. The residual activity came out at 54% in [7]; 230% in [8]; 115% in experiment [9]; 5% in [10]; 101% in [11]; 115% in experiment [12]. Further, the residual activity in experiment [13] was found to be 83%; in [14], 104%; in experiment [15], 78%; in experiment [16], 2%; in [17], 4%; in [18], 99%. Half-maximal inhibition in [19] (IC50) required 420 nM.

What is called IC50 is the concentration at which inhibition is half-maximal.
